In EPA's ToxRefDB 2:

Legend:
primate = details: Sub-acute repeat dose toxicity, macaque, Oral, Gavage/Intubation, dose end: 28 day, group: systemic
rat [1] = details: Sub-acute repeat dose toxicity, sprague dawley, Oral, Gavage/Intubation, dose end: 1 month, group: systemic
mouse [2] = details: Subchronic oral toxicity in rodents, cd1, Gavage/Intubation, dose end: 3 month, group: systemic, systemic / pathology microscopic / gallbladder / degeneration + systemic / pathology microscopic / gallbladder / hyperplasia + systemic / …
rat [3] = details: Combined chronic toxicity/carcinogenicity; fischer; Oral; Feed; dose end: 105 week; group: systemic; systemic / in life observation / body weight / body weight + systemic / pathology microscopic / kidney / nephropathy + systemic / pathology …
mouse [4] = details: Combined chronic toxicity/carcinogenicity, b6c3f1, Oral, Feed, dose end: 106 week, group: systemic
rabbit = details: Prenatal developmental toxicity study, new zealand white, Oral, Gavage/Intubation, dose end: 28 GD
rat [5] = details: Sub-acute repeat dose toxicity; sprague dawley; Oral; Gavage/Intubation; dose end: 1 week; group: systemic; systemic / in life observation / food consumption / food consumption + systemic / in life observation / water consumption / water …
rat [6] = details: Subchronic oral toxicity in rodents, sprague dawley, Gavage/Intubation, dose end: 90 day, group: systemic
rat [7] = details: Multigenerational reproductive toxicity study, sprague dawley, Oral, Gavage/Intubation, dose end: 1 generation
rat [8] = details: Subchronic dermal toxicity, sprague dawley, Topical, dose end: 90 day, group: systemic, systemic / in life observation / clinical signs / desquamation + systemic / in life observation / clinical signs / erythema + systemic / in …
rat [9] = details: Subchronic oral toxicity in rodents, other, Feed, dose end: 13 week, group: systemic
rat [10] = details: Prenatal developmental toxicity study, other, Oral, Gavage/Intubation, dose end: 15 GD
[11] = systemic / clinical chemistry / albumin / albumin + systemic / clinical chemistry / calcium / calcium + systemic / in life observation / …
[12] = systemic / clinical chemistry / alanine aminotransferase (alt/sgpt) / alanine aminotransferase (alt/sgpt) + systemic / clinical chemistry / …
[13] = systemic / in life observation / body weight / body weight
[14] = systemic / in life observation / body weight / body weight + systemic / pathology microscopic / blood / lymphoma nos + systemic / pathology …
[15] = group: developmental, developmental / developmental malformation / bone / malpositioned + developmental / developmental malformation / bone / supernumerary + …
[16] = group: maternal, systemic / in life observation / body weight / body weight gain + systemic / in life observation / food consumption / food consumption
[17] = group: maternal, systemic / in life observation / body weight / body weight gain + systemic / in life observation / food consumption / food consumption + …
[18] = systemic / pathology microscopic / stomach / hyperplasia + systemic / in life observation / clinical signs / abnormal respiratory sounds + …
[19] = systemic / pathology microscopic / stomach / hyperplasia + systemic / pathology microscopic / stomach / edema + systemic / pathology …
[20] = group: parental, systemic / in life observation / clinical signs / fur (altered appearance) + systemic / in life observation / clinical signs / hunched …
[21] = group: reproductive, reproductive / offspring survival early / dead fetuses / dead fetuses
[22] = systemic / in life observation / body weight / body weight + systemic / in life observation / food consumption / food efficiency + systemic…
[23] = group: developmental, developmental / developmental malformation / bone / fused + developmental / developmental malformation / bone / incomplete ossification

SMILES: OCC(CO)n1cnc(-c2ccc(F)cc2)c1-c1ccnc(Oc2ccccc2)n1
- LOAEL (primate; [11]): > 2000 mg/kg/day
- NEL (primate; [11]): 10 mg/kg/day
- NOAEL (primate; [11]): ≥ 2000 mg/kg/day
- LEL (primate; systemic / clinical chemistry / calcium / calcium + systemic / in life observation / clinical signs / feces, discoloration + systemic / …): 300 mg/kg/day
- LOAEL (rat [1]; [12]): > 2000 mg/kg/day
- NEL (rat [1]; [12]): 3 mg/kg/day
- NOAEL (rat [1]; [12]): ≥ 2000 mg/kg/day
- LEL (rat [1]; systemic / in life observation / body weight / body weight gain): 30 mg/kg/day
- LEL (mouse [2]): 30 mg/kg/day
- LOAEL (mouse [2]): > 300 mg/kg/day
- NEL (mouse [2]): < 30 mg/kg/day
- NOAEL (mouse [2]): ≥ 300 mg/kg/day

SMILES: c1ccc2n[nH]nc2c1 [1,2,3-Benzotriazole]
- LEL (rat [3]): 335 mg/kg/day
- LOAEL (rat [3]): 335 mg/kg/day
- NEL (rat [3]): < 335 mg/kg/day
- NOAEL (rat [3]): < 335 mg/kg/day
- LOAEL (mouse [4]; [13]): 1760 mg/kg/day
- NOAEL (mouse [4]; [13]): < 1760 mg/kg/day
- LEL (mouse [4]; [14]): 1760 mg/kg/day
- NEL (mouse [4]; [14]): < 1760 mg/kg/day

SMILES: O=S1CCON=C1c1cc2ccccc2s1 (configuration not stated) [Bethoxazin]
- LOAEL (rabbit; [15]): 30 mg/kg/day
- NEL (rabbit; [15]): 3 mg/kg/day
- LEL (rabbit; group: developmental, developmental / developmental malformation / bone / supernumerary): 10 mg/kg/day
- LOAEL (rabbit; [16]): 30 mg/kg/day
- LEL (rabbit; [17]): 30 mg/kg/day
- LEL (rat [5]): 50 mg/kg/day
- LOAEL (rat [5]): 50 mg/kg/day
- NEL (rat [5]): < 50 mg/kg/day
- NOAEL (rat [5]): < 50 mg/kg/day
- NEL (rat [6]; [18]): 1.25 mg/kg/day
- NOAEL (rat [6]; [18]): 1.25 mg/kg/day
- LEL (rat [6]; [19]): 5 mg/kg/day
- LOAEL (rat [6]; [19]): 5 mg/kg/day
- LEL (rat [7]; [20]): 10 mg/kg/day
- LOAEL (rat [7]; [20]): 70 mg/kg/day
- NEL (rat [7]; [20]): < 10 mg/kg/day
- NOAEL (rat [7]; [20]): 30 mg/kg/day
- LEL (rat [7]; [21]): 70 mg/kg/day
- LOAEL (rat [7]; [21]): > 70 mg/kg/day
- NEL (rat [7]; [21]): 30 mg/kg/day
- NOAEL (rat [7]; [21]): ≥ 70 mg/kg/day
- LEL (rat [8]): 0.1 mg/kg/day
- LOAEL (rat [8]): 0.1 mg/kg/day
- NEL (rat [8]): < 0.1 mg/kg/day
- NOAEL (rat [8]): < 0.1 mg/kg/day

SMILES: CC(C)Nc1nc(N)nc(Cl)n1 [Deethylatrazine]
- LOAEL (rat [9]; systemic / in life observation / body weight / body weight + systemic / in life observation / food consumption / food efficiency): 35.1 mg/kg/day
- LEL (rat [9]; [22]): 35.1 mg/kg/day
- NEL (rat [9]; [22]): 3.2 mg/kg/day
- NOAEL (rat [9]; [22]): 3.2 mg/kg/day
- LEL (rat [10]; [23]): 100 mg/kg/day
- LOAEL (rat [10]; [23]): 100 mg/kg/day
- NEL (rat [10]; [23]): 25 mg/kg/day
- NOAEL (rat [10]; [23]): 25 mg/kg/day
- LEL (rat [10]; [16]): 25 mg/kg/day
- LOAEL (rat [10]; [16]): 25 mg/kg/day
- NEL (rat [10]; [17]): 5 mg/kg/day
- NOAEL (rat [10]; [17]): 5 mg/kg/day
